This note sets out measurements from ChEMBL document CHEMBL1149555, “Synthesis and antiproliferative activity of thiazolidine analogs for melanoma” (Bioorg Med Chem Lett, 2007).

The nature of test [1]: Antiproliferative activity against human SK-MEL-188 cells after 48 hrs by SRB assay. The class given is functional, cell-based. To be noted: SK-MEL-188, 48 h.
Test [2] can be described thus: Antiproliferative activity against human WM164 cells after 48 hrs by SRB assay. In kind it is functional, cell-based. To be noted: WM164, 48 h. (In general: In SRB staining, fixed cells bind dye roughly in proportion to their protein.)
Test [3] is described as follows: Antiproliferative activity against human fibroblasts after 48 hrs by SRB assay. In kind it is cell-based. To be noted: Fibroblast.

SMILES strings stand for the structures.

With `CCCCCCCCCCCCCCCNC(=O)[C@@H]1CSC(c2ccc(NC(C)=O)cc2)N1` (stereo partly specified), the results for the IC50 in test [1], in test [2] and in test [3] were 1600 nM, 1000 nM and 14300 nM, respectively.
For `CCCCCCCCCCCCCCCCNC(=O)[C@@H]1CSC(c2ccc(N)cc2)N1` (stereo partly specified) the same measures were 2300 nM, 1400 nM and 7400 nM.
For the compound `CCCCCCCCCCNC(=O)[C@@H]1CSC(c2ccc3c(c2)OCO3)N1` (stereo partly specified), the IC50 in test [1] is 6600 nM; in test [2], 4500 nM; in test [3] it was 8200 nM.
As to `CCCCCCCCNC(=O)[C@@H]1CSC(c2cc(OC)c(OC)c(OC)c2)N1` (stereo partly specified), the values for the IC50 in test [1], in test [2] and in test [3] were 17100 nM, 19600 nM and 20800 nM, respectively.
With `CCCCCCCCC/C=C/CCCCCCCNC(=O)[C@@H]1CSC(c2ccc(NC(C)=O)cc2)N1` (stereo partly specified), the results for the IC50 in test [1], in test [2] and in test [3] were 3300 nM, 1400 nM and 18000 nM, respectively.
For `CCCCCCCCCCCCCCCCCNC(=O)[C@@H]1CSC(c2ccc(NC(C)=O)cc2)N1` (stereo partly specified), the IC50 came out at 8500 nM in test [1], 2400 nM in test [2] and 35800 nM in test [3].
On to `CCCCCCCCCCCCCCNC(=O)[C@@H]1CSC(c2cc(OC)c(OC)c(OC)c2)N1` (stereo partly specified), for which the IC50 in test [1] turned out to be 2000 nM; in test [2], 1600 nM; in test [3] it was 2600 nM.
On the same counts, the results for `CON(C)C(=O)[C@@H]1CSC(c2ccccc2)N1` (stereo partly specified) are over 100000 nM, over 100000 nM and over 100000 nM.
With `COc1cc(C2SCC3C(=O)N4C(CSC4c4cc(OC)c(OC)c(OC)c4)C(=O)N32)cc(OC)c1OC` (stereo unspecified), the IC50 in test [1], in test [2] and in test [3] was over 50000 nM throughout.
In the case of `CCCCCCCCCCCCNC(=O)[C@@H]1CSC(c2ccc(NC(C)=O)cc2)N1` (stereo partly specified), the IC50 in test [1] was found to be 2400 nM; in test [2], 1200 nM; in test [3] it was 3500 nM.
As for `CCCCCCCCCCCCCCCCNC(=O)[C@@H]1CSC(c2ccc(NC(C)=O)cc2)N1` (stereo partly specified), the IC50 in test [1] was 2100 nM; in test [2], 600 nM; in test [3] it was 19100 nM.
In the case of `CCCCCCCCCCCCCCCCNC(=O)[C@@H]1CSC(c2ccc(NC(C)=O)cc2)N1C` (stereo partly specified), the IC50 was 29100 nM in test [1], over 100000 nM in test [2] and over 100000 nM in test [3].
`CCCCCCCCCCCCNC(=O)[C@@H]1CSC(c2cc(OC)c(OC)c(OC)c2)N1` (stereo partly specified): the figures for the IC50 in test [1], in test [2] and in test [3] were 2100 nM, 2400 nM and 2400 nM, respectively.
Take `CCCCCCCCCCCCCCCCNC(=O)[C@H]1CSC(c2ccc(NC(C)=O)cc2)N1` (stereo partly specified): the IC50 in test [1] stood at 3200 nM; in test [2] it was 1400 nM; in test [3], 22600 nM.
As to `CCCCCCCCCCCCCCNC(=O)[C@@H]1CSC(c2ccccc2)N1` (stereo partly specified), the figures for the IC50 in test [1], in test [2] and in test [3] were 1900 nM, 600 nM and 2800 nM, respectively.
In the case of `CN(C)/N=N/c1[nH]cnc1C(N)=O` [DACARBAZINE], the IC50 in test [1] and in test [2] was over 100000 nM throughout.
With `CCCCCCCCCCCCCCNC(=O)[C@@H]1CSC(c2ccc(NC(C)=O)cc2)N1` (stereo partly specified), the IC50 in test [1] came out at 2300 nM; in test [2], 600 nM; in test [3] it was 3600 nM.
With `CCCCCCCCCCCCCCNC(=O)[C@H]1CSC(c2cc(OC)c(OC)c(OC)c2)N1` (stereo partly specified), the IC50 in test [1] came out at 2600 nM; in test [2], 1100 nM; in test [3], 4100 nM.
On to `CCCCCCCCCCCCNC(=O)[C@@H]1CSC(c2ccc(OC)c(OC)c2)N1` (stereo partly specified), for which the IC50 in test [1] worked out at 2900 nM; in test [2], 1600 nM; in test [3] it was 4500 nM.
For `CCCCCCCCCCCCCCNC(=O)[C@@H]1CSC(c2ccc(OC)c(OC)c2)=N1` the same measures were 19100 nM, 42900 nM and over 50000 nM.
Regarding `CCCCCCCCCCCCCCNC(=O)[C@@H]1CSC(c2ccccc2)=N1`, the IC50 in test [1] is 42100 nM; in test [2] it was over 50000 nM; in test [3], over 50000 nM.
In the case of `CCCCCCCCCCCCCCCCNC(=O)[C@@H]1CSC(c2cc(OC)c(OC)c(OC)c2)N1` (stereo partly specified), the IC50 in test [1] was found to be 1800 nM; in test [2] it was 700 nM; in test [3], 2400 nM.
In the case of `CCCCCCCCCCCCCCNC(=O)[C@@H]1CSC(c2ccc3c(c2)OCO3)N1` (stereo partly specified), the IC50 in test [1] was determined as 1600 nM; in test [2], 1000 nM; in test [3] it was 4200 nM.
As to `CCCCCCCCC/C=C\CCCCCCCNC(=O)[C@@H]1CSC(c2ccc(NC(C)=O)cc2)N1` (stereo partly specified), the IC50 in test [1] was found to be 1400 nM; in test [2], 1000 nM; in test [3], 10600 nM.
In the case of `CCCCCCCCCCCCCCCCNC(=O)[C@@H]1CSC(c2ccc3c(c2)OCO3)N1` (stereo partly specified), the figures for the IC50 in test [1], in test [2] and in test [3] were 1600 nM, 1800 nM and 5700 nM, respectively.
Turning to `CCCCCCCCCCCCCCCCNC(=O)[C@@H]1CSC(c2ccc(OC)c(OC)c2)N1` (stereo partly specified), the IC50 in test [1] is 1500 nM; in test [2], 500 nM; in test [3], 2100 nM.
With `CCCCCCCCCCCCCCNC(=O)[C@@H]1CSC(c2ccc(OC)c(OC)c2)N1` (stereo partly specified), the IC50 is 1500 nM in test [1], 800 nM in test [2] and 2800 nM in test [3].
For `CNC(=O)c1cc(Oc2ccc(NC(=O)Nc3ccc(Cl)c(C(F)(F)F)c3)cc2)ccn1` [SORAFENIB], the IC50 in test [1] turned out to be 5400 nM; in test [2] it was 4900 nM; in test [3], 15100 nM.
For `CCCCCCCCCCCCCCCCCCNC(=O)[C@@H]1CSC(c2ccc(NC(C)=O)cc2)N1` (stereo partly specified), the IC50 in test [1] is 22300 nM; in test [2] it was 11600 nM; in test [3], over 60000 nM.
In the case of `CCCCCCCCCCCCNC(=O)[C@@H]1CSC(c2ccc(N)cc2)N1` (stereo partly specified), the IC50 was determined as 2200 nM in test [1], 1400 nM in test [2] and 4100 nM in test [3].
For `CCCCCCCCCCCCCCCCNC(=O)[C@@H]1CSC(c2ccccc2)N1` (stereo partly specified), the concentration for half-maximal inhibition (IC50) in test [1] was determined as 1900 nM; in test [2], 700 nM; in test [3] it was 2200 nM.
With `CCCCCCCCCCNC(=O)[C@@H]1CSC(c2ccc(OC)c(OC)c2)N1` (stereo partly specified), the IC50 in test [1] came out at 11900 nM; in test [2] it was 6100 nM; in test [3] it was 6300 nM.
In the case of `CCCCCCCCCCCCNC(=O)[C@@H]1CSC(c2ccc3c(c2)OCO3)N1` (stereo partly specified), the IC50 in test [1] was found to be 3500 nM; in test [2], 2500 nM; in test [3], 5200 nM.
`CCCCCCCCCCNC(=O)[C@@H]1CSC(c2cc(OC)c(OC)c(OC)c2)N1` (stereo partly specified): the figures for the IC50 in test [1], in test [2] and in test [3] were 14500 nM, 2100 nM and 6700 nM, respectively.

Usually IC50 stands for the point on the concentration scale where inhibition reaches its midpoint. A higher IC50 goes with weaker potency.
